The numbers were not newly measured in patent US20190231770A1, “COMBINATION COMPOSITIONS COMPRISING FXR AGONISTS FOR TREATING OR PREVENTING A FIBROTIC, CIRRHOTIC DISEASE OR DISORDER” (Novartis AG, priority 2016, published 2019), which cites them from elsewhere.

The conditions of series [1]: patients with chronic liver diseases.
For series [2], the system named is caspases 1, 2, 3, 6, 7, 8 and 9.
The conditions of series [3]: pre-clinical models of NASH and cold ischemia and reperfusion injury; clinical trials in NASH/NAFLD, portal hypertension and cirrhosis.
For series [4] the following is noted: long term administration.

In the case of `C[C@H](NC(=O)C(=O)Nc1ccccc1C(C)(C)C)C(=O)N[C@@H](CC(=O)O)C(=O)COc1c(F)c(F)cc(F)c1F` [emricasan, 3-[2-[(2-tert-butyl-phenylaminooxalyl)-amino]-propionylamino]-4-oxo-5-(2,3,5,6-tetrafluoro-phenoxy)-pentanoic acid], in series [1], the “serum aspartate aminotransferase (AST) and alanine aminotransferase (ALT) levels” value was “lower”. The “inhibition of caspases 1, 2, 3, 6, 7, 8 and 9” value in series [2] is recorded as “inhibits”. Moreover, the efficacy result in series [3] is “demonstrated efficacy”.
As for `CC[C@H]1[C@@H](O)[C@@H]2[C@H](CC[C@]3(C)[C@@H]([C@H](C)CCC(=O)O)CC[C@@H]23)[C@@]2(C)CC[C@@H](O)C[C@@H]12` [obeticholic acid, Obeticholic acid], in series [4], the LDL cholesterol entry is on record as “increased LDL cholesterol” and the pruritus entry is listed as “associated with pruritus”.
